pIC50: −log10 of the molar value.
What was measured:
[1] = tested on: Plasmodium falciparum; test: Antimalarial activity against chloroquine and pyrimethamine-resistant Plasmodium falciparum K1; assay type: functional, organism-based
[2] = tested on: L6; test: Cytotoxicity against rat L6 cells; assay type: cell-based
[3] = tested on: Trypanosoma brucei rhodesiense; test: Antitrypanosomal activity against Trypanosoma brucei rhodesiense STIB900 by microplate assay; assay type: functional, organism-based
[4] = Selectivity index, ratio of IC50 for rat L6 cells to IC50 for Trypanosoma brucei rhodesiense STIB900; assay type: toxicity, cell-based; details: read-out: Ratio IC50

SMILES	pIC50 ([1]; Plasmodium falciparum, K1)	pIC50 ([2]; Rattus norvegicus, L6)	pIC50 ([3]; Trypanosoma brucei, STIB900)	pIC50 [1]	pIC50 ([2]; l6)	pIC50 [3]	selectivity ratio [4]
CCN(CC)CCC(=O)OC1CC2(N3CCCC3)CC(c3ccccc3)C1C(c1ccccc1)C2 (racemic)	6.52	4.72	6.96	–	–	–	–
O=C(CN1CCC(O)CC1)OC1CC2(N3CCCCC3)CC(c3ccccc3)C1C(c1ccccc1)C2 (racemic)	–	< 3.75	5.42	–	–	–	–
O=C(CN1CCCC1)OC1CC2(N3CCCCC3)CC(c3ccccc3)C1C(c1ccccc1)C2 (racemic)	–	–	–	6.13	4.28	6.06	–
CN(C)C12CC(OC(=O)CCN3CCCCC3)C(C(c3ccccc3)C1)C(c1ccccc1)C2 (racemic)	6.40	4.59	6.68	–	–	–	–
CCN(CC)CCC(=O)OC1CC2(N(C)C)CC(c3ccccc3)C1C(c1ccccc1)C2 (racemic)	6.37	4.63	6.96	–	–	–	–
O=C(CCN1CCC(O)CC1)OC1CC2(N3CCCCC3)CC(c3ccccc3)C1C(c1ccccc1)C2 (racemic)	6.77	4.55	6.01	–	–	–	–
O=C(CCN1CCCCC1)OC1CC2(N3CCCCC3)CC(c3ccccc3)C1C(c1ccccc1)C2 (racemic)	6.59	4.26	6.04	–	–	–	–
O=C(CCN1CCCCC1)OC1CC2(N3CCCC3)CC(c3ccccc3)C1C(c1ccccc1)C2 (racemic)	6.55	4.75	6.51	–	–	–	–
CN(C)C12CC(OC(=O)CCN3CCCC3)C(C(c3ccccc3)C1)C(c1ccccc1)C2 (racemic)	6.26	4.59	7.12	–	–	–	341
O=C(CN1CCC(O)CC1)OC1CC2(N3CCCC3)CC(c3ccccc3)C1C(c1ccccc1)C2 (racemic)	6.07	4.03	5.98	–	–	–	–
CCN(CC)CCC(=O)OC1CC2(N3CCCCC3)CC(c3ccccc3)C1C(c1ccccc1)C2 (racemic)	6.72	4.64	6.82	–	–	–	–
CN(C)C12CC(OC(=O)CCN3CCC(O)CC3)C(C(c3ccccc3)C1)C(c1ccccc1)C2 (racemic)	5.65	4.05	6.02	–	–	–	–
O=C(CCN1CCCC1)OC1CC2(N3CCCCC3)CC(c3ccccc3)C1C(c1ccccc1)C2 (racemic)	6.60	4.90	6.42	–	–	–	–
O=C(CCN1CCC(O)CC1)OC1CC2(N3CCCC3)CC(c3ccccc3)C1C(c1ccccc1)C2 (racemic)	5.72	4.45	5.84	–	–	–	–
O=C(CCN1CCCC1)OC1CC2(N3CCCC3)CC(c3ccccc3)C1C(c1ccccc1)C2 (racemic)	6.43	4.66	6.92	–	–	–	–
O=C(CN1CCCCC1)OC1CC2(N3CCCCC3)CC(c3ccccc3)C1C(c1ccccc1)C2 (racemic)	–	–	–	5.85	< 3.73	5.27	–
Nc1nc(N)nc(Nc2ccc([As]3SCC(CO)S3)cc2)n1 (stereo not given) [MELARSOPROL]	–	–	8.30	–	–	–	–
CCN(CC)CC(=O)OC1CC2(N3CCCCC3)CC(c3ccccc3)C1C(c1ccccc1)C2 (racemic)	–	–	–	6.11	4.21	5.82	–
CN(C)C12CC(OC(=O)CN3CCC(O)CC3)C(C(c3ccccc3)C1)C(c1ccccc1)C2 (racemic)	5.67	3.99	5.69	–	–	–	–

— ChEMBL document CHEMBL1153871, “Antiplasmodial and antitrypanosomal activities of aminobicyclo[2.2.2]octyl omega-aminoalkanoates” (Eur J Med Chem, 2009)
